Results reported in the supplement of paper PMC10307832.

Key:
Assay in all cases: relative viability (nuclei count vs DMSO), 5 days (fraction); higher = more cells survive
A-427 = tested on: A-427
In short: (§1)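 Relative viability equals treated-well nuclei counts divided by vehicle-well nuclei counts. Counts came from 4× images of lung cancer cell lines grown in 1536-well plates for 5 days after pin-tool dosing on the day after seeding. Dosing used one drug alone or a fixed anchor-drug dose plus five library-drug doses (not always all listed) in √10 steps, and values are medians of duplicate plates.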

ABC-1 = tested on: ABC-1
In short: as §1

EPLC-272H = tested on: EPLC-272H
In short: as §1

HCC-15 = tested on: HCC-15
In short: as §1

LC-2-ad = tested on: LC-2-ad
In short: as §1

LK-2 = tested on: LK-2
In short: as §1

NCI-H1734 = tested on: NCI-H1734
In short: as §1

NCI-H1793 = tested on: NCI-H1793
In short: as §1

NCI-H1915 = tested on: NCI-H1915
In short: as §1

NCI-H1944 = tested on: NCI-H1944
In short: as §1

NCI-H2009 = tested on: NCI-H2009
In short: as §1

NCI-H2023 = tested on: NCI-H2023
In short: as §1

NCI-H2342 = tested on: NCI-H2342
In short: as §1

NCI-H2347 = tested on: NCI-H2347
In short: as §1

NCI-H322M = tested on: NCI-H322M
In short: as §1

NCI-H358 = tested on: NCI-H358
In short: as §1

NCI-H441 = tested on: NCI-H441
In short: as §1

NCI-H522 = tested on: NCI-H522
In short: as §1

NCI-H647 = tested on: NCI-H647
In short: as §1

NCI-H838 = tested on: NCI-H838
In short: as §1

RERF-LC-KJ = tested on: RERF-LC-KJ
In short: as §1

SW 1573 = tested on: SW 1573
In short: as §1

UMC-11 = tested on: UMC-11
In short: as §1

**Q.** Which results are given for `Cc1csc(=NC2CCCCC2)n1/N=C/c1ccc(O)c(O)c1O` [MIM1] + O=C(CCCCCCC(=O)Nc1ccccc1)NO [Vorinostat] (partner 1 µM)?
**A.** relative viability (A-427; first compound 0.2 µM): 0.858; relative viability (A-427; first compound 0.6325 µM): 0.663; relative viability (A-427; first compound 2 µM): 0.849; relative viability (A-427; first compound 6.325 µM): 0.745; relative viability (A-427; first compound 20 µM): 0.312; relative viability (ABC-1; first compound 0.2 µM): 1.42; relative viability (ABC-1; first compound 0.6325 µM): 0.87; relative viability (ABC-1; first compound 2 µM): 0.994; relative viability (ABC-1; first compound 6.325 µM): 0.497; relative viability (ABC-1; first compound 20 µM): 0.247; relative viability (EPLC-272H; first compound 0.2 µM): 0.509; relative viability (EPLC-272H; first compound 0.6325 µM): 0.523; relative viability (EPLC-272H; first compound 2 µM): 0.343; relative viability (EPLC-272H; first compound 6.325 µM): 0.125; relative viability (EPLC-272H; first compound 20 µM): 0.126; relative viability (HCC-15; first compound 0.2 µM): 0.789; relative viability (HCC-15; first compound 0.6325 µM): 0.81; relative viability (HCC-15; first compound 2 µM): 0.87; relative viability (HCC-15; first compound 6.325 µM): 0.49; relative viability (HCC-15; first compound 20 µM): 0.167; relative viability (LC-2-ad; first compound 0.2 µM): 0.698; relative viability (LC-2-ad; first compound 0.6325 µM): 0.306; relative viability (LC-2-ad; first compound 2 µM): 0.777; relative viability (LC-2-ad; first compound 6.325 µM): 0.267; relative viability (LC-2-ad; first compound 20 µM): 0.204; relative viability (LK-2; first compound 0.2 µM): 0.363; relative viability (LK-2; first compound 0.6325 µM): 0.272; relative viability (LK-2; first compound 2 µM): 0.304; relative viability (LK-2; first compound 6.325 µM): 0.562; relative viability (LK-2; first compound 20 µM): 0.203; relative viability (NCI-H1734; first compound 0.2 µM): 0.911; relative viability (NCI-H1734; first compound 0.6325 µM): 0.582; relative viability (NCI-H1734; first compound 2 µM): 0.757; relative viability (NCI-H1734; first compound 6.325 µM): 0.442; relative viability (NCI-H1734; first compound 20 µM): 0.125; relative viability (NCI-H1793; first compound 0.2 µM): 0.783; relative viability (NCI-H1793; first compound 2 µM): 0.732; relative viability (NCI-H1793; first compound 6.325 µM): 0.649; relative viability (NCI-H1793; first compound 20 µM): 0.553; relative viability (NCI-H1915; first compound 0.2 µM): 0.527; relative viability (NCI-H1915; first compound 0.6325 µM): 0.429; relative viability (NCI-H1915; first compound 2 µM): 0.442; relative viability (NCI-H1915; first compound 6.325 µM): 0.343; relative viability (NCI-H1915; first compound 20 µM): 0.17; relative viability (NCI-H1944; first compound 0.2 µM): 0.548; relative viability (NCI-H1944; first compound 0.6325 µM): 0.499; relative viability (NCI-H1944; first compound 2 µM): 0.39; relative viability (NCI-H1944; first compound 6.325 µM): 0.428; relative viability (NCI-H1944; first compound 20 µM): 0.228; relative viability (NCI-H2009; first compound 0.2 µM): 0.717; relative viability (NCI-H2009; first compound 0.6325 µM): 0.713; relative viability (NCI-H2009; first compound 2 µM): 0.685; relative viability (NCI-H2009; first compound 6.325 µM): 0.506; relative viability (NCI-H2009; first compound 20 µM): 0.372; relative viability (NCI-H2023; first compound 0.2 µM): 0.55; relative viability (NCI-H2023; first compound 0.6325 µM): 0.58; relative viability (NCI-H2023; first compound 2 µM): 0.391; relative viability (NCI-H2023; first compound 6.325 µM): 0.194; relative viability (NCI-H2023; first compound 20 µM): 0.0736; relative viability (NCI-H2342; first compound 0.2 µM): 0.727; relative viability (NCI-H2342; first compound 0.6325 µM): 0.719; relative viability (NCI-H2342; first compound 2 µM): 0.774; relative viability (NCI-H2342; first compound 6.325 µM): 0.589; relative viability (NCI-H2342; first compound 20 µM): 0.905; relative viability (NCI-H2347; first compound 0.2 µM): 0.68; relative viability (NCI-H2347; first compound 0.6325 µM): 0.643; relative viability (NCI-H2347; first compound 2 µM): 0.652; relative viability (NCI-H2347; first compound 6.325 µM): 0.449; relative viability (NCI-H2347; first compound 20 µM): 0.315; relative viability (NCI-H322M; first compound 0.2 µM): 0.889; relative viability (NCI-H322M; first compound 0.6325 µM): 0.917; relative viability (NCI-H322M; first compound 2 µM): 0.789; relative viability (NCI-H322M; first compound 6.325 µM): 0.733; relative viability (NCI-H322M; first compound 20 µM): 0.418; relative viability (NCI-H358; first compound 0.2 µM): 0.741; relative viability (NCI-H358; first compound 0.6325 µM): 0.628; relative viability (NCI-H358; first compound 2 µM): 0.678; relative viability (NCI-H358; first compound 6.325 µM): 0.235; relative viability (NCI-H358; first compound 20 µM): 0.169; relative viability (NCI-H441; first compound 0.2 µM): 0.748; relative viability (NCI-H441; first compound 0.6325 µM): 0.798; relative viability (NCI-H441; first compound 2 µM): 0.974; relative viability (NCI-H441; first compound 6.325 µM): 0.212; relative viability (NCI-H441; first compound 20 µM): 0.191; relative viability (NCI-H522; first compound 0.2 µM): 0.858; relative viability (NCI-H522; first compound 0.6325 µM): 0.916; relative viability (NCI-H522; first compound 2 µM): 0.91; relative viability (NCI-H522; first compound 6.325 µM): 0.891; relative viability (NCI-H522; first compound 20 µM): 0.345; relative viability (NCI-H647; first compound 0.2 µM): 0.655; relative viability (NCI-H647; first compound 0.6325 µM): 0.61; relative viability (NCI-H647; first compound 2 µM): 0.614; relative viability (NCI-H647; first compound 6.325 µM): 0.454; relative viability (NCI-H647; first compound 20 µM): 0.104; relative viability (NCI-H838; first compound 0.2 µM): 0.717; relative viability (NCI-H838; first compound 0.6325 µM): 0.747; relative viability (NCI-H838; first compound 2 µM): 0.675; relative viability (NCI-H838; first compound 6.325 µM): 0.413; relative viability (NCI-H838; first compound 20 µM): 0.197; relative viability (RERF-LC-KJ; first compound 0.2 µM): 0.616; relative viability (RERF-LC-KJ; first compound 0.6325 µM): 0.558; relative viability (RERF-LC-KJ; first compound 2 µM): 0.507; relative viability (RERF-LC-KJ; first compound 6.325 µM): 0.317; relative viability (RERF-LC-KJ; first compound 20 µM): 0.225; relative viability (SW 1573; first compound 0.2 µM): 0.806; relative viability (SW 1573; first compound 0.6325 µM): 0.668; relative viability (SW 1573; first compound 2 µM): 0.773; relative viability (SW 1573; first compound 6.325 µM): 0.573; relative viability (SW 1573; first compound 20 µM): 0.131; relative viability (UMC-11; first compound 0.2 µM): 0.501; relative viability (UMC-11; first compound 0.6325 µM): 0.392; relative viability (UMC-11; first compound 2 µM): 0.438; relative viability (UMC-11; first compound 6.325 µM): 0.243; relative viability (UMC-11; first compound 20 µM): 0.147
